Positions count from the first letter of the chain named. Where two headings read alike, the source gives them in different places. Non-standard residues stand in square brackets, D forms with d. Residues, ends and D or L forms follow the SMILES beside them. No end group written: not given here. pS = N[C@@H](COP(=O)(O)O)C(=O)O
Key:
[1] = target: T1, TNPO3 C511A (Homo sapiens, UniProt Q9Y5L0, C511A); assay: ITC, ligand titrated into TNPO3 C511A; assay type: binding; conditions: for TNPO3 binding Kd, outcome in words: TNPO3 C511A, two replicates
T1 construct: full-length (FL) WT human TNPO3 were generated by synthesizing codon-optimized DNA fragments; His6 (N, cleaved yes); protein A (N, cleaved yes); made in house; host or cells: Escherichia coli BL21-(DE3) Star
T1 sequence (Q9Y5L0 1-923 C511A): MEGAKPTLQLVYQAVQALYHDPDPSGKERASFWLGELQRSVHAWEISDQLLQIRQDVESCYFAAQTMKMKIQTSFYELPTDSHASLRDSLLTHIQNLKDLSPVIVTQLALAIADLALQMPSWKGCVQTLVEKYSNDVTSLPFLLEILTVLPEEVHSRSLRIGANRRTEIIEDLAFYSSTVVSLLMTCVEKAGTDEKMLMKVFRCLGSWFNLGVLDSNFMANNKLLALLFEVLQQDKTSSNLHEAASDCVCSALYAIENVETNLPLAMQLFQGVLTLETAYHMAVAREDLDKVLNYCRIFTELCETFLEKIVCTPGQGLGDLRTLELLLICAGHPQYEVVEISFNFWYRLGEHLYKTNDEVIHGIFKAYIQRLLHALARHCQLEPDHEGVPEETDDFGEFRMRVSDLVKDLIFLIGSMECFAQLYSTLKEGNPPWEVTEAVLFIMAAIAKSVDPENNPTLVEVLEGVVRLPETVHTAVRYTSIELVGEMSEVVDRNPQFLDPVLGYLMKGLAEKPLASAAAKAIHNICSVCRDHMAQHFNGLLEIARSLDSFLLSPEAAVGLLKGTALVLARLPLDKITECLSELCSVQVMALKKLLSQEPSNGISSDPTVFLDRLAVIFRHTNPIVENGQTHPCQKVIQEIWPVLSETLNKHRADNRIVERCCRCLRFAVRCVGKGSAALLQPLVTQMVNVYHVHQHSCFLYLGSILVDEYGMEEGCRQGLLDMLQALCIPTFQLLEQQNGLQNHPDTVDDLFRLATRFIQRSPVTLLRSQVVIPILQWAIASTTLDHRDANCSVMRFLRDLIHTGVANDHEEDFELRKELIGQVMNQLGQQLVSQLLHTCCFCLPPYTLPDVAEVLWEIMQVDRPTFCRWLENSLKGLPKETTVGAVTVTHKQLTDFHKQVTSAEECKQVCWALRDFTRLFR
Procedure: (§1) ITC has been performed by a Malvern Microcal VP-ITC at 25 °C for all binding studies. Samples have been dissolved in Tris buffer containing 50 mM Tris–HCl, 150 mM NaCl, 2 mM TCEP, and 0.04% NaN3 at pH 7.5. Binding studies of CIRBP^RSY and SRSF1^RS were performed with TNPO3 WT, and studies of CIRBP (157–172) and its mutants/phosphorylations were performed with TNPO3 C511A, respectively. Injection has been carried out by a syringe containing ligand solution of 100 μM, which adds ligand step-wise into the cell containing 10 μM TNPO3 during 28 injections of 10 μL each. Data analysis, curve fitting, and calculation of Kd, ΔH, and ΔS have been carried out using Origin-based 7.0 software provided by the manufacturer. All replicated ITC data are shown in Supplementary Fig. 6 and Supplementary Table 1.

[2] = target: T2, TNPO3 WT (Homo sapiens, UniProt Q9Y5L0); assay: ITC, ligand titrated into TNPO3 WT; assay type: binding; conditions: for Kd / ΔS: ITC, TNPO3 WT; for Kd: 25 °C, pH 7.5, read-out: TNPO3 binding Kd
T2 sequence (Q9Y5L0 1-923): T1 sequence (Q9Y5L0 1-923 C511A) with A511C
Procedure: as §1

[3] = system: TNPO3; assay: NMR binding studies with TNPO3 (1H-15N HSQC, 1H-13C HMQC, 1H 1D, STD); set-up: species or system human; conditions: for chemical shift perturbations of TNPO3 methyl groups upon ligand addition (1H,13C HMQC): 100 µM [IM-methyl 13C] labeled TNPO3, one stoichiometric equivalent of ligand, 298 K; for line broadening of peptide 1H signals upon addition of TNPO3 (1H NMR): 50 µM peptide, stoichiometric amount of TNPO3
Procedure: All NMR studies for TNPO3 were carried out using the wild type protein. Protein samples for ^1H-^13C HMQC were prepared at a concentration of 100 μM and equilibrated in a buffer containing 50 mM Tris–HCl, pH 6.7, 150 mM NaCl, 2 mM TCEP and 10% D2O. Spectral acquisitions for TNPO3 free and in complex with CIRBP^RSY and SRSF1^RS, respectively were performed at 298 K on a 700 MHz Bruker Avance III NMR spectrometer equipped with a TCI triple-resonance cryoprobe. The pulse program was sfhmqcf2gpph and the spectra were recorded with 32 scans, interscan delay of 1 s, 160 points in F1, 1024 points in F2, 5283.879 Hz spectral width in F1, and 11,160.714 Hz spectral width in F2. Spectra were processed using Topspin 4.1.3.
Spectral acquisitions for TNPO3 free and in complex with mCIRBP^RSY, pCIRBP^RSY, and pSRSF1^RS, respectively, were performed at 298 K on a 600 MHz Bruker Avance Neo NMR spectrometer equipped with a TXI 600S3 probehead. The pulse program was hmqcgpphwg and the spectra were recorded with 64 scans, interscan delay of 1 s, 200 points in F1, 1024 points in F2, 4545.455 Hz spectral width in F1, and 7812.500 Hz spectral width in F2. Spectra were processed using Topspin 4.3.0.
For ^1H-^15N HSQC spectra, protein samples were equilibrated in a buffer containing 50 mM Tris–HCl, pH 6.7, 150 mM NaCl, 2 mM TCEP, 0.04% NaN3, and 10% D2O (with additional 20 mM MgCl2 for CIRBP phosphorylation kinetics). Data were recorded at 298 K on the 600 MHz Bruker Avance Neo NMR spectrometer equipped with a TXI 600S3 probehead. The pulse program was hsqcetfpf3gpsi and was recorded with 8-16 scans, interscan delay of 1 s, 128 points in F1, 1024 points in F2, 1949.318 Hz spectral width in F1, and 9615.385 Hz spectral width in F2. Spectra were processed using Topspin 4.3.0.

[4] = 100 µM ligand into 10 µM TNPO3 C511A, 25 °C, 50 mM Tris–HCl, 150 mM NaCl, 2 mM TCEP, 0.04% NaN3, pH 7.5, error = SD of the fit

Molecule | Kd / affinity of binding to TNPO3 C511A (ITC), as given in Table 1 [1, 4] | TNPO3 binding Kd, outcome in words [1] | line broadening of peptide 1H signals upon addition of TNPO3 (1H NMR) [3] | other results
GGSYRDSYDSAATHNE [CIRBP (157-172) Y167A, synthetic CIRBP (157-172) peptide with point mutation Y167A] | Low affinity | Low affinity | – | –
GGSYRDSpYDSYATHNE [CIRBP (157-172) Y164pY, synthetic CIRBP (157-172) peptide with phosphorylated Y164] | decreased binding beyond being detectable or fittable | No binding | – | –
pSRSF1^RS: SRSF1^RS phosphorylated in vitro using recombinant SRPK1 (DGPRSPSYGRSRSRSRS; also: multiple phosphoserines, sites not listed) [reference compound] | – | – | – | Kd ([2]; replicate 1 (rep1)): 2490 ± 400 nM; Kd ([2]; replicate 2 (rep2)): 2460 ± 500 nM; ΔS ([2]; replicate 1 (rep1)): –9.12 cal/mol/deg; ΔS ([2]; replicate 2 (rep2)): –34.0 cal/mol/deg; spectral changes of 15N-labeled cargo upon addition of TNPO3 (1H,15N HSQC) ([3]; 60 µM cargo, one stoichiometric equivalent of TNPO3, 298 K, pH 6.7): extensive line broadening of several NMR signals; chemical shift perturbations of TNPO3 methyl groups upon ligand addition (1H,13C HMQC) ([3]; pH 6.7): led to CSPs of several TNPO3 ^1H,^13C cross-peaks
GGSYADSYDSYATHNE [CIRBP (157-172) R161A, synthetic CIRBP (157-172) peptide with point mutation R161A] | No binding | No binding | – | –
C[C@H](NC(=O)[C@H](Cc1ccc(O)cc1)NC(=O)[C@H](CO)NC(=O)[C@H](CC(=O)O)NC(=O)[C@H](Cc1ccc(O)cc1)NC(=O)[C@H](CO)NC(=O)[C@H](CC(=O)O)NC(=O)[C@H](CCCNC(=N)N)NC(=O)[C@H](Cc1ccc(O)cc1)NC(=O)[C@H](CO)NC(=O)CNC(=O)CNC(=O)[C@H](CO)NC(=O)[C@H](CO)NC(=O)[C@H](CCCNC(=N)N)NC(=O)[C@H](CC(=O)O)NC(=O)[C@H](COP(=O)(O)O)NC(=O)[C@H](Cc1ccc(O)cc1)NC(=O)CNC(=O)CNC(=O)[C@H](COP(=O)(O)O)NC(=O)[C@H](CCC(N)=O)NC(=O)[C@H](COP(=O)(O)O)NC(=O)[C@H](CCCNC(=N)N)NC(=O)[C@H](CO)NC(=O)[C@H](CO)NC(=O)[C@H](Cc1ccc(O)cc1)NC(=O)[C@H](Cc1ccc(O)cc1)NC(=O)[C@H](CC(=O)O)NC(=O)[C@H](CCCNC(=N)N)NC(=O)[C@H](CO)NC(=O)CN)C(=O)N[C@H](C(=O)N[C@@H](Cc1c[nH]cn1)C(=O)N[C@@H](CC(N)=O)C(=O)N[C@@H](CCC(=O)O)C(=O)O)[C@@H](C)O [pCIRBP^RSY] (H-GSRDYYSSR[pS]Q[pS]GGY[pS]DRSSGGSYRDSYDSYATHNE-OH) | – | – | – | decrease of TNPO3 binding affinity upon SRPK1 phosphorylation ([2]; ITC Kd 0.61 ± 0.10 versus 5.99 ± 0.96 µM): ten-fold; ΔS ([2]; replicate 1 (rep1)): –112 cal/mol/deg; ΔS ([2]; replicate 2 (rep2)): –50.6 cal/mol/deg; chemical shift perturbations of TNPO3 methyl groups upon ligand addition (1H,13C HMQC) ([3]; pH 6.7): shifted to comparable end points
GGSYRDSADSYATHNE [CIRBP (157-172) Y164A, synthetic CIRBP (157-172) peptide with point mutation Y164A] | No binding | No binding | – | –
GGSYRDSYDSYATHNE [CIRBP (157-172) WT] | – | – | – | Kd ([1]; 100 µM ligand into 10 µM TNPO3 C511A, 25 °C, 50 mM Tris–HCl, 150 mM NaCl, 2 mM TCEP, 0.04% NaN3, pH 7.5, error = SD of the fit, read-out: Kd / affinity of binding to TNPO3 C511A (ITC), as given in Table 1): 5780 ± 1630 nM
GGSYRDSYDpSYATHNE [CIRBP (157-172) S166pS, synthetic CIRBP (157-172) peptide with phosphorylated S166] | decreased binding beyond being detectable or fittable | No binding | – | –
GGSYRDSYDSpYATHNE [CIRBP (157-172) Y167pY, synthetic CIRBP (157-172) peptide with phosphorylated Y167] | – | Low affinity | – | –

Continued, in another order:

Kd / affinity of binding to TNPO3 C511A (ITC), as given in Table 1 [1, 4] | TNPO3 binding Kd, outcome in words [1] | line broadening of peptide 1H signals upon addition of TNPO3 (1H NMR) [3] | Molecule | other results
– | – | broadened | SRDRRFRGRYRSPYSG [RBM39] | –
– | – | broadened | SQVYRCGFQPFNQHLLPW [P5CS] | –
– | – | broadened | YYDYEIERFWRGGQYENFRV [ZCH18] | –
– | – | broadened | PSGGSYRDSYESYGNS [RBMX/RMXL1, synthetic peptide RBMX (276–291), CIRBP-like motif] | change of peptide 1H 1D NMR signals with sub-stoichiometric TNPO3 ([3]; 100 µM RSY regions and 10 µM TNPO3 (peer review reply)): slight decrease of peptide signal intensity
